Assay results from the supplement of paper PMC11208160.

Experiment: recombinant UMI read abundance after kanamycin selection (control-corrected) (log10(CPM+1)); higher = more efficient recombination; extreme values may be limits of the assay; sequences stand for … in AGTGCAGAGAAAATCGGCCAGTTTTCTCTGCCTGCAGTCCGCATGCCGTGGGACCCCTTGGGTTCTAACCTGTTGCCTAGATTTATGCAGCGGACTGCCTTTCTCCCAAAGTGATAAACCGG…AGGTTGGTTTCACT; site = the 11-nt donor
In short: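 Sequenced counts of recombinant UMIs were turned into CPM, averaged across replicates and scaled with control-derived factors. The reported figure is log10(CPM+1). Those UMIs, each 12 nt long, tagged donor and donor-binding-loop pairs on a plasmid with a promoterless kanamycin gene, screened as a pool in Escherichia coli with IPTG (0.07 mM) plus kanamycin or without selection.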
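Further: IS621 bridge recombinase in Escherichia coli cells against a fixed T5 target plasmid.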

| Sequence | recombinant UMI read abundance (log10) |
| --- | --- |
| ATAGAGCCATGGACCGGTTTTCCCGGTAATCCGTATTTGAA (site ATAGAGCCTTT) | 0.525 |
| ATAGCCTCATGGACCGGTTTTCCCGGTAATCCGTATTTGCG (site ATAGCCTCTCG) | 2.52 |
| ATAGCGACATGGACCGGTTTTCCCGGTAATCCGTATTTGCG (site ATAGCGACTCG) | 2.61 |
| ATAGCTGCATGGACCGGTTTTCCCGGTAATCCGTATTTGTG (site ATAGCTGCTCA) | 1.35 |
| ATAGCTGCATGGACCGGTTTTCCCGGTAATCCGTATTTGTG (site CTAGCTGCTCA) | 0.647 |
| ATAGCTGCATGGACCGGTTTTCCCGGTAATCCGTATTTGTG (site GTAGCTGCTCA) | 0.00767 |
| ATAGCTGCATGGACCGGTTTTCCCGGTAATCCGTATTTGTG (site TTAGCTGCTCA) | 0.0149 |
| ATAGGACCATGGACCGGTTTTCCCGGTAATCCGTATTTGCT (site ATAGGACCTAG) | 0 |
| ATAGTAACATGGACCGGTTTTCCCGGTAATCCGTATTTGAG (site ATAGTAACTCT) | 2.18 |
| ATAGTACCATGGACCGGTTTTCCCGGTAATCCGTATTTGAC (site ATAGTACCTGT) | 0 |
| ATAGTAGCATGGACCGGTTTTCCCGGTAATCCGTATTTGAC (site ATAGTAGCTGT) | 3.06 |
| ATAGTAGCATGGACCGGTTTTCCCGGTAATCCGTATTTGAC (site CTAGTATCTGT) | 0 |
| ATAGTATCATGGACCGGTTTTCCCGGTAATCCGTATTTGAA (site ATAGTATCTTT) | 3.09 |
| ATAGTATCATGGACCGGTTTTCCCGGTAATCCGTATTTGAA (site CTAGTATCTGT) | 0.977 |
| ATATAGGCATGGACCGGTTTTCCCGGTAATCCGTATTTGGC (site ATATAGGCTGC) | 2.39 |
| ATATAGGCATGGACCGGTTTTCCCGGTAATCCGTATTTGGC (site ATCTAGGCTGC) | 1.31 |
| ATATAGGCATGGACCGGTTTTCCCGGTAATCCGTATTTGGC (site ATGTAGGCTGC) | 1.08 |
| ATATAGGCATGGACCGGTTTTCCCGGTAATCCGTATTTGGC (site ATTTAGGCTGC) | 0.00901 |
| ATATATCCATGGACCGGTTTTCCCGGTAATCCGTATTTGGT (site ATATATCCTAC) | 0.648 |
| ATATGCACATGGACCGGTTTTCCCGGTAATCCGTATTTGTA (site ATATGCACTTA) | 2.49 |
| ATATGCACATGGACCGGTTTTCCCGGTAATCCGTATTTGTA (site CTATGCACTTA) | 0.913 |
| ATATGCACATGGACCGGTTTTCCCGGTAATCCGTATTTGTA (site GTATGCACTTA) | 0.909 |
| ATATGCACATGGACCGGTTTTCCCGGTAATCCGTATTTGTA (site TTATGCACTTA) | 1.66 |
| ATATGGACATGGACCGGTTTTCCCGGTAATCCGTATTTGAC (site ATATGGACTGT) | 2.7 |
| ATCAACTCATGGACCGGTTTTCCCGGTAATCCGTATTTGTG (site ATCAACTCTCA) | 2.13 |

| Sequence | recombinant UMI read abundance (log10) |
| --- | --- |
| ATCCACGCATGGACCGGTTTTCCCGGTAATCCGTATTTGAG (site ATCCAAGCTCT) | 0.00979 |
| ATCCACGCATGGACCGGTTTTCCCGGTAATCCGTATTTGAG (site ATCCACGCTCT) | 0.817 |
| ATCCACGCATGGACCGGTTTTCCCGGTAATCCGTATTTGAG (site ATCCAGGCTCT) | 0.0164 |
| ATCCACGCATGGACCGGTTTTCCCGGTAATCCGTATTTGAG (site ATCCATGCTCT) | 0.00887 |
| ATCCGAGCATGGACCGGTTTTCCCGGTAATCCGTATTTGAG (site ATCCAAGCTCT) | 0.696 |
| ATCCGAGCATGGACCGGTTTTCCCGGTAATCCGTATTTGAG (site ATCCCAGCTCT) | 0.172 |
| ATCCGAGCATGGACCGGTTTTCCCGGTAATCCGTATTTGAG (site ATCCGAGCTCT) | 0.924 |
| ATCCGAGCATGGACCGGTTTTCCCGGTAATCCGTATTTGAG (site ATCCTAGCTCT) | 0.0162 |
| ATCCGATCATGGACCGGTTTTCCCGGTAATCCGTATTTGGT (site ATCCGATCTAC) | 0.721 |
| ATCCTATCATGGACCGGTTTTCCCGGTAATCCGTATTTGAC (site ATCCTATCTGT) | 1.58 |
| ATCCTGGCATGGACCGGTTTTCCCGGTAATCCGTATTTGAC (site ATCCTGGCTGT) | 0 |
| ATCGATACATGGACCGGTTTTCCCGGTAATCCGTATTTGAC (site ATCAATACTGT) | 1.49 |
| ATCGATACATGGACCGGTTTTCCCGGTAATCCGTATTTGAC (site ATCCATACTGT) | 0 |
| ATCGATACATGGACCGGTTTTCCCGGTAATCCGTATTTGAC (site ATCGATACTGT) | 2.32 |
| ATCGATACATGGACCGGTTTTCCCGGTAATCCGTATTTGAC (site ATCTATACTGT) | 0.652 |
| ATCGTCACATGGACCGGTTTTCCCGGTAATCCGTATTTGCA (site ATCGTCACTTG) | 2.56 |
| ATCGTTCCATGGACCGGTTTTCCCGGTAATCCGTATTTGTT (site ATCGTTCCTAA) | 0.568 |
| ATCTAATCATGGACCGGTTTTCCCGGTAATCCGTATTTGGA (site ATCTAATCTTC) | 2.05 |
| ATCTACACATGGACCGGTTTTCCCGGTAATCCGTATTTGCT (site ATCTACACTAG) | 2.26 |
| ATCTACACATGGACCGGTTTTCCCGGTAATCCGTATTTGCT (site CTCTACACTAG) | 1.56 |
| ATCTACACATGGACCGGTTTTCCCGGTAATCCGTATTTGCT (site GTCTACACTAG) | 1.41 |
| ATCTACACATGGACCGGTTTTCCCGGTAATCCGTATTTGCT (site TTCTACACTAG) | 2.05 |
| ATCTAGACATGGACCGGTTTTCCCGGTAATCCGTATTTGAC (site ATCTAAACTGT) | 2.21 |
| ATCTAGACATGGACCGGTTTTCCCGGTAATCCGTATTTGAC (site ATCTACACTGT) | 0 |
| ATCTAGACATGGACCGGTTTTCCCGGTAATCCGTATTTGAC (site ATCTAGACTGT) | 2.68 |

| Sequence | recombinant UMI read abundance (log10) |
| --- | --- |
| ATCTAGACATGGACCGGTTTTCCCGGTAATCCGTATTTGAC (site ATCTATACTGT) | 0 |
| ATCTATCCATGGACCGGTTTTCCCGGTAATCCGTATTTGAC (site ATCTATACTGT) | 0 |
| ATCTATCCATGGACCGGTTTTCCCGGTAATCCGTATTTGAC (site ATCTATCCTGT) | 0.991 |
| ATCTATCCATGGACCGGTTTTCCCGGTAATCCGTATTTGAC (site ATCTATGCTGT) | 0 |
| ATCTATCCATGGACCGGTTTTCCCGGTAATCCGTATTTGAC (site ATCTATTCTGT) | 0 |
| ATCTATTCATGGACCGGTTTTCCCGGTAATCCGTATTTGAC (site ATCTATACTGT) | 0.00799 |
| ATCTATTCATGGACCGGTTTTCCCGGTAATCCGTATTTGAC (site ATCTATCCTGT) | 1.89 |
| ATCTATTCATGGACCGGTTTTCCCGGTAATCCGTATTTGAC (site ATCTATGCTGT) | 0 |
| ATCTATTCATGGACCGGTTTTCCCGGTAATCCGTATTTGAC (site ATCTATTCTGT) | 1.51 |
| ATGAAGGCATGGACCGGTTTTCCCGGTAATCCGTATTTGGC (site ATGAAGGCTGC) | 2.32 |
| ATGAAGGCATGGACCGGTTTTCCCGGTAATCCGTATTTGGC (site ATGCAGGCTGC) | 1.72 |
| ATGAAGGCATGGACCGGTTTTCCCGGTAATCCGTATTTGGC (site ATGGAGGCTGC) | 2.09 |
| ATGAAGGCATGGACCGGTTTTCCCGGTAATCCGTATTTGGC (site ATGTAGGCTGC) | 2.08 |
| ATGACGACATGGACCGGTTTTCCCGGTAATCCGTATTTGCA (site AGGAAGACTTG) | 0 |
| ATGACGACATGGACCGGTTTTCCCGGTAATCCGTATTTGCA (site ATGACGACTTG) | 1.81 |
| ATGACTACATGGACCGGTTTTCCCGGTAATCCGTATTTGAC (site AAGACTACTGT) | 0.508 |
| ATGACTACATGGACCGGTTTTCCCGGTAATCCGTATTTGAC (site ACGACTACTGT) | 1.92 |
| ATGACTACATGGACCGGTTTTCCCGGTAATCCGTATTTGAC (site AGGACTACTGT) | 0.907 |
| ATGACTACATGGACCGGTTTTCCCGGTAATCCGTATTTGAC (site ATGACTACTGT) | 2.54 |
| ATGACTGCATGGACCGGTTTTCCCGGTAATCCGTATTTGTC (site ATGACTGCTGA) | 1.47 |
| ATGAGCACATGGACCGGTTTTCCCGGTAATCCGTATTTGGA (site ATGAGCACTTC) | 0.82 |
| ATGAGGCCATGGACCGGTTTTCCCGGTAATCCGTATTTGAC (site ATAAGGCCTGT) | 0 |
| ATGAGGCCATGGACCGGTTTTCCCGGTAATCCGTATTTGAC (site ATCAGGCCTGT) | 0 |
| ATGAGGCCATGGACCGGTTTTCCCGGTAATCCGTATTTGAC (site ATGAGGCCTGT) | 0.716 |
| ATGAGGCCATGGACCGGTTTTCCCGGTAATCCGTATTTGAC (site ATTAGGCCTGT) | 0 |
